Converted amounts (≈) assume the structure as drawn. Values belong to the compound of their own block, whether it stands above or below them.
What was measured:
[1] = tested on: Human immunodeficiency virus; assay: Antiviral activity against HIV infected in human H9 cells; assay type: functional, organism-based; settings: Human immunodeficiency virus 1, H9
[2] = target: Human immunodeficiency virus type 1 reverse transcriptase (Human immunodeficiency virus 1, UniProt Q72547); assay: Inhibition of HIV1 reverse transcriptase
[3] = tested on: Human immunodeficiency virus 1; assay: Antiviral activity against HIV-1 infected in CEM-SS cells; assay type: functional, organism-based; settings: Human immunodeficiency virus 1, CEM-SS
MT4 = assay: Cytotoxicity against human MT4 cells by MTT assay; assay type: functional; settings: read-out: TD50 (the source's name)
[4] = tested on: Human immunodeficiency virus 1; assay: Antiviral activity against HIV-1 IIIB infected in human MT4 cells; assay type: functional, organism-based; settings: Human immunodeficiency virus 1, IIIB
[5] = Inhibition of HIV1 integrase; set-up: species or system Human immunodeficiency virus 1
[6] = tested on: Human immunodeficiency virus; assay: Antiviral activity against HIV; assay type: functional, organism-based; settings: Human immunodeficiency virus 1
Hepatitis C virus [7] = assay: Antiviral activity against HCV assessed as inhibition of RNA replication; assay type: functional, organism-based, Hepacivirus hominis
Hepatitis C virus [8] = assay: Antiviral activity against HCV assessed as inhibition of HCV RNA replication at 5.0 uM relative to control; assay type: functional, Hepacivirus hominis; set-up: scale not given: the % may be the effect or the level left
[9] = tested on: Human immunodeficiency virus 1; assay: Antiviral activity against HIV-1 infected in human Jurkat cells; assay type: functional, organism-based; settings: Human immunodeficiency virus 1, Jurkat
[10] = Binding affinity to HIV protease assessed as inhibition constant; set-up: species or system Human immunodeficiency virus
[11] = target: Human immunodeficiency virus type 1 protease (Human immunodeficiency virus 1) (UniProt Q72874); assay: (§1) Inhibition of HIV-1 protease
[12] = tested on: Human immunodeficiency virus 1; assay: Antiviral activity against HIV-1 infected in human H9 cells; assay type: functional, organism-based; settings: Human immunodeficiency virus 1, H9
[13] = Inhibition of Hepatitis C virus NS5B polymerase; set-up: species or system Hepacivirus hominis
[14] = target: T1, Human immunodeficiency virus type 1 protease (Human immunodeficiency virus 1, UniProt Q72874); assay: Binding affinity to HIV-1 protease assessed as inhibition constant
[15] = Therapeutic index, ratio of IC50 for cytotoxicity against human H9 cells to EC50 for antiviral activity against HIV-1 infected in H9 cells; assay type: toxicity, cell-based; settings: read-out: Ratio IC50/EC50
[16] = target: T1, Human immunodeficiency virus type 1 protease; assay: as §1
Human alphaherpesvirus 1 [17] = assay: Antiviral activity against Herpes simplex virus 1; assay type: functional, organism-based
[18] = Cytotoxicity against African green monkey Vero cells; assay type: toxicity, cell-based; settings: chlorocebus sabaeus, read-out: CD50 (the source's name)
Human alphaherpesvirus 1 [19] = assay: Antiviral activity against Herpes simplex virus 1 assessed as reduction in number of plaques at 0.12 mg/ml relative to control; assay type: functional; set-up: scale not given: the % may be the effect or the level left
[20] = Therapeutic index, ratio of IC50 for cytotoxicity against human H9 cells to EC50 for antiviral activity against HIV infected in H9 cells; assay type: toxicity, cell-based; settings: read-out: Ratio IC50/EC50
H9 = assay: Cytotoxicity against human H9 cells; assay type: functional, cell-based
Hepatitis C virus [21] = assay: Antiviral activity against HCV subtype 1b in Huh-5-2 cells; assay type: functional, organism-based, Hepacivirus hominis
[22] = Half life in dog; assay type: ADME, Canis lupus familiaris; settings: in vivo
[23] = Antiviral activity against HIV-1 infected in human MT4 cells assessed as cell survival relative to control; assay type: functional, Human immunodeficiency virus 1
[24] = target: Human immunodeficiency virus type 1 protease (Human immunodeficiency virus 1) (UniProt Q72874); assay: Inhibition of HIV-1 protease relative to control; settings: concentration not given here
[25] = read-out: ED50 (the source's name)

Compound: O=c1ccc2cc3ccoc3cc2o1 [PSORALEN]
- EC50 ([1]; read-out: EC50): 0.1 µg/mL (≈ 0.537 µM)

Compound: CC1(C)OC1COc1c2occc2cc2ccc(=O)oc12 (centres undefined)
- EC50 ([1]; read-out: EC50): 2.37 µg/mL (≈ 8.28 µM)

Compound: CC1(C)OC1COc1c2ccoc2cc2oc(=O)ccc12 (centres undefined)
- EC50 ([1]; read-out: EC50): 1 µg/mL (≈ 3.49 µM)

Compound: CCCc1cc(=O)oc2c3c(c4c(c12)OC(C)(C)C=C4)O[C@H](C)[C@@H](C)[C@@H]3O [CALANOLIDE A]
- IC50 [2]: 20 µM
- EC50 [3]: 0.1 µM

Compound: CCC(Cc1ccccc1)c1cc(O)c(C(c2cccc(NC(=O)[C@H](Cc3c[nH]cn3)NC(=O)OC(C)(C)C)c2)C2CC2)c(=O)o1 (some centres undefined)
- CC50 (MT4): ≥ 30 µM
- IC50 [4]: 3 µM

- IC50 [5]: 16 µM
Compound: COc1ccc(-c2c3c4cc(OC)c(OS(=O)(=O)O)cc4oc(=O)c3n3ccc4cc(OC)c(OC)cc4c23)cc1O

Compound: CSc1ccc(-c2cc3ccccc3oc2=O)cc1
- IC50 [6]: 18.2 µM

Compound: O=c1ccc2cc(O)c(O)cc2o1 [ESCULETIN]
- EC50 [1, 25]: 2.51 µg/mL (≈ 14.1 µM)

Compound: CC(=O)OC[C@H]1O[C@@H](n2c(SCc3cc4cc(Br)ccc4oc3=O)nc3ccccc32)[C@H](OC(C)=O)[C@@H](OC(C)=O)[C@@H]1OC(C)=O
- EC50 (Hepatitis C virus [7]): 4.1 µM
- Activity (Hepatitis C virus [8]): 90%

Compound: CC(C)=CCc1c(O)c(C(=O)C(C)C)c(O)c2c(-c3ccccc3)cc(=O)oc12 [MESUOL]
- IC50 [9]: 2 µM

Compound: CCC(c1ccccc1)c1c(O)c2ccccc2oc1=O (centres undefined) [PHENPROCOUMON]
- EC50 [6, 25]: 100 µM
- Ki [10]: 1 µM

Compound: CC(C)c1cccc(C(C)C)c1NC(=O)C(=O)CC(=O)CC(c1ccccc1)c1c(O)c2ccccc2oc1=O (centres undefined)
- ID50 [11]: 31 µM

Compound: CC1(C)C=Cc2c(ccc3ccc(=O)oc23)O1 [SESALIN]
- EC50 ([12]; read-out: EC50): 3.5 µM

Compound: COC(C)(C)C(O)COc1c2ccoc2cc2oc(=O)ccc12 (centres undefined)
- EC50 ([1]; read-out: EC50): 33 µg/mL (≈ 104 µM)

Compound: O=c1oc2ccc(Br)cc2cc1CSc1nc2cc(F)ccc2[nH]1
- EC50 (Hepatitis C virus [7]): 3.4 µM

- IC50 [13]: 18.5 µM
Compound: COc1cc2c(cc1O)oc(=O)c1c3cc(O)c(O)cc3oc21

Compound: CCC(c1cccc(NS(=O)(=O)c2ccc(C#N)cn2)c1)c1c(O)c2c(oc1=O)CCCC2 (centres undefined)
- EC50 [12, 25]: 0.95 µM
- Ki [14]: 50 pM

Compound: CC(=O)O[C@@H]1C(OCC(C)C)c2c(ccc3ccc(=O)oc23)OC1(C)C (single isomer, unassigned)
- selectivity ratio [15]: 30.6
- EC50 ([12]; read-out: EC50): 2.26 µM

- IC50 [2]: 30 µM
Compound: CCCc1cc(=O)oc2c3c(c4c(c12)OC(C)(C)C=C4)O[C@H](C)[C@H](C)[C@@H]3O [CALANOLIDE C]

Compound: O=C(O)CCCCC1(c2ccccc2)CC(O)=C(SCCc2ccccc2)C(=O)O1 (centres undefined)
- IC50 [16]: 5 µM

Compound: O=c1oc(-c2ccccc2)cc(O)c1Sc1ccccc1
- IC50 [16]: 3 µM

Compound: CCCC1(CCC)CC(O)=C(C(c2ccccc2)C2CC2)C(=O)O1 (centres undefined)
- IC50 [16]: 5 µM

Compound: COc1ccc(C2OC(COc3cc(=O)oc4ccccc34)=NN2C(C)=O)cc1 (centres undefined)
- MIC (Human alphaherpesvirus 1 [17]): 130 µg/mL (≈ 330 µM)

Compound: O=C(COc1cc(=O)oc2ccccc12)NN1C(=O)CSC1c1ccc(Cl)cc1 (centres undefined)
- MIC (Human alphaherpesvirus 1 [17]): 120 µg/mL (≈ 279 µM)
- CC50 [18]: 20 µg/mL (≈ 46.4 µM)
- Activity (Human alphaherpesvirus 1 [19]): 30%

Compound: O=c1oc2cc(O)ccc2c(O)c1-c1ccc(O)cc1
- IC50 [16]: 2 µM

Compound: CCC(c1cccc(NC(=O)[C@H](C)NC(=O)OC(C)(C)C)c1)c1c(O)c2ccccc2oc1=O (some centres undefined)
- Ki [10]: 0.17 µM

- IC50 [13]: 63.8 µM
Compound: O=c1oc2cc(O)c(O)cc2c2oc3cc4c(cc3c12)OCO4

Compound: CCCc1cc(=O)oc2c3c(c4c(c12)OC(C)(C)C=C4)O[C@H](C)[C@@H](C)[C@H]3O [(+)-CALANOLIDE B]
- IC50 [2]: 15 µM
- EC50 [3]: 0.4 µM

Compound: COc1ccc(/C=N\NC(=O)COc2cc(=O)oc3ccccc23)cc1
- MIC (Human alphaherpesvirus 1 [17]): 200 µg/mL (≈ 568 µM)

Compound: CC(C)=CCOc1c2occc2cc2ccc(=O)oc12 [PENTOSALEN]
- EC50 ([1]; read-out: EC50): < 0.1 µg/mL
- selectivity ratio [20]: > 1000
- IC50 (H9): > 100 µg/mL

Compound: C/C=C(\C)O[C@@H]1c2c(ccc3ccc(=O)oc23)OC(C)(C)[C@@H]1OC(C)=O
- EC50 ([12]; read-out: EC50): 4.6 µM

- IC50 [13]: 311 µM
Compound: COc1cc2oc(=O)c3c4cc(OC)c(O)cc4oc3c2cc1O

Compound: O=c1oc2ccc(Br)cc2cc1CSc1ncc[nH]1
- EC50 (Hepatitis C virus [21]): 5.1 µM

Compound: N#Cc1ccc(S(=O)(=O)Nc2cccc(C(c3c(O)c4c(oc3=O)CCCCCC4)C3CC3)c2)cc1 (centres undefined)
- IC50 [6]: 1.5 µM
- Ki [10]: 0.0008 µM
- half-life [22]: 6 h

Compound: CCC(c1cccc(NC(=O)[C@@H]2CCCN2C(=O)OC(C)(C)C)c1)c1c(O)c2ccccc2oc1=O (some centres undefined)
- Ki [10]: 3.6 µM

Compound: CC1(C)Oc2ccc3ccc(=O)oc3c2[C@@H](OC(=O)[C@@]23CC[C@](C)(C(=O)O2)C3(C)C)[C@H]1OC(=O)C12CCC(C)(C(=O)O1)C2(C)C
- selectivity ratio [15]: 137000
- EC50 ([12]; read-out: EC50): 0.000256 µM

Compound: CCOC(=O)C(C(C)=O)C(c1cccc([N+](=O)[O-])c1)c1c(O)c2ccccc2oc1=O (centres undefined)
- Survival [23]: 78%
- inhibition [24]: 25%
- IC50 [16]: 1e-05 µM

Compound: Cc1c(CO)c(=O)oc2c3c(ccc12)OC(C)(C)[C@H](OC(=O)C12CCC(C)(C(=O)O1)C2(C)C)[C@@H]3OC(=O)[C@@]12CC[C@](C)(C(=O)O1)C2(C)C
- EC50 ([12]; read-out: EC50): 0.004 µM

Reference: ChEMBL document CHEMBL5257032, “Therapeutic potential of coumarins as antiviral agents” (Eur J Med Chem, 2016)
